Patent publication US4053604A (priority 1975, dated 1977)
Entries after “also recorded” stand apart in the source; their conditions may differ.

Legend:
[1] = induction time of rats exposed to halothane anesthesia (loss of righting reflex); assay type: in vivo, male albino rats (Sprague-Dawley)
Protocol: The effects of Compound I on halothane-induced anesthesia were assessed using 20 rats for each dose or time interval determination. The experiments were performed on male albino rats (Sprague-Dawley) weighing from 180-220 g. A schematic representation of the apparatus used is illustrated in FIG. 1. The apparatus consists of a rectangular box made of transparent plastic (115 cm long × 28 cm high × 28 cm wide) which is divided into 4 equal chambers by perforated walls. The box rotates around a hollow axis through which gases can be delivered at several proportions from cylinders, through their respective flowmeters. An in-line halothane vaporizer is placed just before the gases reach the chambers. There is an air-tight door to every chamber through which two animals, one treated and one control, are introduced. The gases are delivered at one end of the box and suction is applied to the other end to take up the gases after flowing through the chambers. An in-line water manometer monitors the resulting pressure. This pressure is kept at 0-5 mm H2 O to make certain the gases in the anesthetic chambers remain at atmospheric pressure. The mixture of gases is delivered at a rate of 15 l/min. The inhalation anesthetic gases are delivered for ten minutes prior to the introduction of the animals into the chambers to assure an even distribution in the four chambers. The chambers rotate at four rev/min forcing the animals to tumble and allowing the experimenter to accurately time the loss and recovery of the righting reflex. Induction times are recorded as the time interval elapsed between the beginning of exposure of the animals to the gases and the moment in which they lose their righting reflex.
Groups of control animals (four at a time) were subjected to halothane concentrations ranging from 0.5 to 2.5% in a mixture of 95% O2 -5% CO2, and the induction times thus obtained were used to calculate concentration-reponse curves. Since a certain time elapsed between putting the first and the last rat into their respective chambers, each animal was timed separately with a stopwatch. […] This intermediate concentration of halothane was then used to study the effects of increasing doses of the test compound on the induction times and anesthesia times.
The animals were pretreated by administering the test compounds in dosages ranging from 10 to 500 μg/kg, i.v., at 5, 30, 60, 120, 240 and 360 minutes prior to their exposure to halothane. As soon as all animals lost their righting reflex, the O2 -halothane flow was discontinued and replaced by an equal flow of air. The animals were allowed to remain in the rotating chambers until they regained their righting reflex. Anesthesia times were determined as the interval between the time required to lose and the time to regain the righting reflex. Air flushing of the anesthetic chambers was performed after each determination and the entire procedure repeated with another group of animals for the determination of the effect of a new dose or concentration.
Drugs used in this study include: droperidol, phenoperidine hydrochloride, halothane and Compound I in the form of its hydrochloride salt. Phenoperidine hydrochloride and Compound I (hydrochloride) were dissolved separately in a warm solution of 0.9% sodium chloride. Droperidol was suspended in saline with the aid of a drop ot Tween 80 (Tween 80 is a registered trademark for a complex mixture of polyoxyethylene ethers of mixed partial oleic esters of sorbitol anhydride). Dosages are expressed in this study as the salt form of the compound where applicable. When the experimental protocol called for the concomitant administration of two drugs, these were mixed in the syringe and administered intravenously. The drugs were injected in a volume of 0.1 ml/100 g body weight.
The statistical analysis of the data was performed using Student's […]. […]

[2] = tail-flick test, analgesic activity of the agent alone; assay type: in vivo, albino mice
Text: (§1) In the following experiments, phenoperidine and Compound I are used in the form of their hydrochloride salt and droperidol in the form of its free base in the presence of lactic acid for adjustment to pH to 3.4. Results are expressed on the basis of the form of the drug employed (i.e., free base or hydrochloride salt).
(§2) Results of such tests using albino mice are illustrated by tables 1,2 and 3 in which the neuroleptic agent, droperidol, is included for comparative purposes.
*The dose which increased analgesia by 50% when tested 15 minutes after […]

[3] = tail-flick test, potentiation of the analgesic activity of phenoperidine; assay type: in vivo, albino mice
Text: as §1, §2
Potentiation of the Analgesic Activity (ED50) of Phenoperidine,
i.e. 0.5 mg/kg, by varying Doses of Neuroleptic Agents.
*PD50 refers to the dose of the neuroleptic which increased the
analgesic activity (ED50) of phenoperidine by 50%.
Modified Analgesic Activity of Phenoperidine in
the Presence of the Neuroleptic PD50. -
*ED50 refers to the analgesic activity of phenoperidine after
pretreatment with a fixed dose (PD50) of the neuroleptic agents.

[4] = respiratory minute volume and mean arterial blood pressure in rats; assay type: in vivo
Protocol: These effects are less than those encountered with neuroleptics presently available for NLA as evidenced by laboratory experiments in rats in which these cardiovascular parameters are measured before and after the administration of Compound 1 and the neuroleptic agent droperidol, see Table 8.
The Effect of Compound 1 and Droperidol on Respiratory Minute Volume
and Mean Arterial Blood Pressure

[5] = in words; cited from earlier work

CC(C)[C@@]1(O)CCN2C[C@@H]3c4ccccc4CCc4cccc(c43)[C@H]2C1 [Compound 1, (+)(4a,13b-trans)-(3-hydroxy,13b-trans)-3-isopropyl-2,- 3,4,4a,8,9,13b,14-octahydro-lH-benzo[6,7]cyclohepta[1,2,3-de]pyrido[2,1-a]isoquinolin-3-ol]
Induction time, treated ([1]; 10 μg/kg i.v., 5 min before 0.75% halothane): 6.66 min
Induction time, treated ([1]; 10 μg/kg i.v., 5 min before 1.0% halothane): 2.67 min
Induction time, treated ([1]; 10 μg/kg i.v., 5 min before 1.5% halothane): 1.32 min
Induction time, treated ([1]; 10 μg/kg i.v., 5 min before 2.0% halothane): 0.72 min
Induction time, treated ([1]; 10 μg/kg i.v., 5 min before 2.5% halothane): 0.57 min
Induction time, treated ([1]; 25 μg/kg i.v., 5 min before 0.75% halothane): 6.30 min
Induction time, treated ([1]; 25 μg/kg i.v., 5 min before 1.0% halothane): 1.86 min
Induction time, treated ([1]; 25 μg/kg i.v., 5 min before 1.5% halothane): 1.02 min
Induction time, treated ([1]; 25 μg/kg i.v., 5 min before 2.0% halothane): 0.71 min
Induction time, treated ([1]; 25 μg/kg i.v., 5 min before 2.5% halothane): 0.58 min
Induction time, treated ([1]; 50 μg/kg i.v., 5 min before 0.75% halothane): 5.77 min
Induction time, treated ([1]; 50 μg/kg i.v., 5 min before 1.0% halothane): 1.62 min
Induction time, treated ([1]; 50 μg/kg i.v., 5 min before 1.5% halothane): 1.03 min
Induction time, treated ([1]; 50 μg/kg i.v., 5 min before 2.0% halothane): 0.75 min
Induction time, treated ([1]; 50 μg/kg i.v., 5 min before 2.5% halothane): 0.57 min
Induction time, treated ([1]; 100 μg/kg i.v., 5 min before 0.75% halothane): 4.05 min
Induction time, treated ([1]; 100 μg/kg i.v., 5 min before 1.0% halothane): 1.37 min
Induction time, treated ([1]; 100 μg/kg i.v., 5 min before 1.5% halothane): 1.13 min
Induction time, treated ([1]; 100 μg/kg i.v., 5 min before 2.0% halothane): 0.69 min
Induction time, treated ([1]; 100 μg/kg i.v., 5 min before 2.5% halothane): 0.54 min
Induction time, treated ([1]; 200 μg/kg i.v., 5 min before 0.75% halothane): 3.48 min
Induction time, treated ([1]; 200 μg/kg i.v., 5 min before 1.0% halothane): 1.31 min
Induction time, treated ([1]; 200 μg/kg i.v., 5 min before 1.5% halothane): 1.03 min
Induction time, treated ([1]; 200 μg/kg i.v., 5 min before 2.0% halothane): 0.64 min
Induction time, treated ([1]; 200 μg/kg i.v., 5 min before 2.5% halothane): 0.57 min
reduction of induction time ([1]; 200 μg/kg, i.v., 1% halothane): approximately 50%
Induction time, treated ([1]; 250 μg/kg i.v., 5 min before 0.75% halothane): 3.72 min
Induction time, treated ([1]; 250 μg/kg i.v., 5 min before 1.0% halothane): 1.67 min
Induction time, treated ([1]; 250 μg/kg i.v., 5 min before 1.5% halothane): 0.91 min
Induction time, treated ([1]; 250 μg/kg i.v., 5 min before 2.0% halothane): 0.67 min
Induction time, treated ([1]; 250 μg/kg i.v., 5 min before 2.5% halothane): 0.60 min
maximum decrease in induction time ([1]; Compound 1 (hydrochloride) alone, i.v., 5 min before 1% halothane (FIG. 2)): 45%
effect on induction time for the anesthetic ([1]; administered prior to anesthetic treatment, in words, listed as Compound I): decreased considerably; also recorded: substantially reduced
decrease in induction time, with phenoperidine ([1]; plus 25 μg/kg, i.v., phenoperidine hydrochloride, 1% halothane (FIG. 2)): about 65%
ED50 ([2]; Mus musculus, ip, 0.25 h, i.p., dose which increased analgesia by 50% when tested 15 minutes after drug administration): > 35 mg/kg
analgesic activity when given alone ([2]; in words, listed as Compound I): only a negligible amount of analgesic activity; also recorded: no analgesic activity could be demonstrated
relative potentiating activity, Compound I versus droperidol ([3]; in words): equiactive
enhancement of analgesic activity of phenoperidine by concomitant administration ([3]; in words, listed as Compound I): well defined potentiating effect on analgesic agents; also recorded: significantly enhanced
PD50 of Neuroleptic Agent (dose which increased the analgesic activity (ED50) of phenoperidine by 50%) ([3]; mouse, in vivo, ip): 0.56 ± 0.06 mg/kg
Change in Mean B.P. as % of Control ([4]; 25 μg/kg): -0.83 ± 0.83 % of Control
Change in Minute Volume as % of Control ([4]; 25 μg/kg): +4.2 ± 1.4 % of Control
Change in Mean B.P. as % of Control ([4]; 100 μg/kg): -4.1 ± 2.6 % of Control
Change in Minute Volume as % of Control ([4]; 100 μg/kg): +6.8 ± 1.9 % of Control
Change in Mean B.P. as % of Control ([4]; 250 μg/kg): -8.9 ± 1.6 % of Control
Change in Minute Volume as % of Control ([4]; 250 μg/kg): +6.6 ± 2.7 % of Control
effect on respiratory minute volume ([4]; in words): only a very small increase in minute volume
effect on mean arterial blood pressure ([4]; upper level of therapeutically effective neuroleptic dosages, in words): minor diminution of blood pressure
neuroleptic potency [5]: potent neuroleptic agent
